Key:
JAK2 = target: T1, JAK2 (Homo sapiens, UniProt O60674); test: Biochemical JAK2 kinase assay (LanthaScreen); details: for Ki: read-out: JAK 2 (pKi) (converted)
T1 construct: GST; purchased Life Technologies
Outline: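 GST-tagged recombinant JAK2 pre-incubated 1 h at ambient temperature with compound and GFP-STAT1 peptide in HEPES pH 7.5/MgCl2 buffer, then ATP added for a 1 h reaction with 1% DMSO. TR-FRET read after EDTA and Tb-anti-pSTAT1 (pTyr701) addition; IC50 from 4-parameter fit, converted to pKi by Cheng-Prusoff.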

JAK3 = target: T2, JAK3 (Homo sapiens, UniProt P52333); test: Biochemical JAK3 kinase assay (LanthaScreen); design: GST; purchased Life Technologies; details: for Ki: read-out: JAK 3 (pKi) (converted)
T2 sequence (P52333 1-1124): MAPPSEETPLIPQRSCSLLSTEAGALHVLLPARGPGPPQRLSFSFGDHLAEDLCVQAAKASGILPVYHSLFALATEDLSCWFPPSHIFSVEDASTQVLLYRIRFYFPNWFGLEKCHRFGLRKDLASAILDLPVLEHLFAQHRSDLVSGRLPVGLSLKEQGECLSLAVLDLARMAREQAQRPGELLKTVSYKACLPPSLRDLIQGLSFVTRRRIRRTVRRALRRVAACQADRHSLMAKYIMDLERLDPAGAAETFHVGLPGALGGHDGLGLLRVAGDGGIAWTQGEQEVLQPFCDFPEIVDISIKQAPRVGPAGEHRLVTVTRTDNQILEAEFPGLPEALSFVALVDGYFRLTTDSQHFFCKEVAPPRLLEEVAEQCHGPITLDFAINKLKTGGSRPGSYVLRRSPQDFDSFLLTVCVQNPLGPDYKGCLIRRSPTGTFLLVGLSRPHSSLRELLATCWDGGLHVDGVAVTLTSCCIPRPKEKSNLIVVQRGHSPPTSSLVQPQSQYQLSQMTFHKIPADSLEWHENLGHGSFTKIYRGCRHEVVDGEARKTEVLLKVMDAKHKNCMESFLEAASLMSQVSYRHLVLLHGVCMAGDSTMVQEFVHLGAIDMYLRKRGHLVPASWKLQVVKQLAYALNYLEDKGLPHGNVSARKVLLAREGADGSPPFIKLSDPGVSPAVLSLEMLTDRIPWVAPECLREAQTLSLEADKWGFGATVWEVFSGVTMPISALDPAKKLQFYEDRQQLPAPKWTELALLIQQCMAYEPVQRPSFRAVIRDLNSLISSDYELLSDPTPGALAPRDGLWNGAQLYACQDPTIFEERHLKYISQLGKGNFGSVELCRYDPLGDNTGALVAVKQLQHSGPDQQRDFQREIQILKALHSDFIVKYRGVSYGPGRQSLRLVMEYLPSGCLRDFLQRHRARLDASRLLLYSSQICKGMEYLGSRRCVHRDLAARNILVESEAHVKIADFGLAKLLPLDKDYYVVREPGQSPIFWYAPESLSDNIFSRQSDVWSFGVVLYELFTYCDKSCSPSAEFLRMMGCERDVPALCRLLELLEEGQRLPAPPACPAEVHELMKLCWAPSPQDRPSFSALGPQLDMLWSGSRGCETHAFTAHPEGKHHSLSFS
Outline: (§1)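 Recombinant GST-tagged JAK enzymes with GFP-STAT1 peptide substrate in 50 mM HEPES pH 7.5, 10 mM MgCl2, 1 mM EGTA, 0.01% Brij-35; compounds pre-incubated 1 h, then ATP added, 1 h reaction at ambient temperature. TR-FRET (Tb-anti-pSTAT1 pTyr701, 520/495 nm) after EDTA stop; IC50 by 4-parameter fit, converted to pKi via Cheng-Prusoff.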

JAK1 = target: T3, JAK1 (Homo sapiens, UniProt P23458); test: Biochemical JAK1 kinase assay (LanthaScreen); details: for Ki: read-out: JAK 1 (pKi) (converted)
T3 construct: GST; purchased Life Technologies
Outline: as §1

Tyk2 = target: T4, Tyk2 (Homo sapiens, UniProt P29597); test: Biochemical Tyk2 kinase assay (LanthaScreen); details: for Ki: read-out: Tyk 2 (pKi) (converted)
T4 construct: GST; purchased Life Technologies
Outline: as §1

[1] = system: IL-2 stimulated pSTAT5 in Tall-1 T cells; test: Cellular JAK3 potency assay: inhibition of IL-2 stimulated pSTAT5 in Tall-1 T cells; format: cell-based, human; details: for IC50: Homo sapiens, TALL-1, IL-2 stimulated pSTAT5 in Tall-1 T cells, read-out: Tall-1 (pIC50) (converted)
Outline: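 In human Tall-1 T cells, IL-2 (300 ng/ml final, 30 min) drives STAT5 phosphorylation after a 1 h compound pretreatment. Lysates are assayed for pSTAT5 by AlphaLisa, and IC50 derived from signal versus concentration is expressed as pIC50.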

[2] = selectivity: difference of pKi JAK3 and pKi JAK1
[3] = IL-2 stimulated pSTAT5 in Tall-1 T cells
[4] = selectivity JAK3 over JAK1, difference of pKi
[5] = IL-2 stimulated pSTAT5, Tall-1 T cells

T4 sequence (P29597 whole entry): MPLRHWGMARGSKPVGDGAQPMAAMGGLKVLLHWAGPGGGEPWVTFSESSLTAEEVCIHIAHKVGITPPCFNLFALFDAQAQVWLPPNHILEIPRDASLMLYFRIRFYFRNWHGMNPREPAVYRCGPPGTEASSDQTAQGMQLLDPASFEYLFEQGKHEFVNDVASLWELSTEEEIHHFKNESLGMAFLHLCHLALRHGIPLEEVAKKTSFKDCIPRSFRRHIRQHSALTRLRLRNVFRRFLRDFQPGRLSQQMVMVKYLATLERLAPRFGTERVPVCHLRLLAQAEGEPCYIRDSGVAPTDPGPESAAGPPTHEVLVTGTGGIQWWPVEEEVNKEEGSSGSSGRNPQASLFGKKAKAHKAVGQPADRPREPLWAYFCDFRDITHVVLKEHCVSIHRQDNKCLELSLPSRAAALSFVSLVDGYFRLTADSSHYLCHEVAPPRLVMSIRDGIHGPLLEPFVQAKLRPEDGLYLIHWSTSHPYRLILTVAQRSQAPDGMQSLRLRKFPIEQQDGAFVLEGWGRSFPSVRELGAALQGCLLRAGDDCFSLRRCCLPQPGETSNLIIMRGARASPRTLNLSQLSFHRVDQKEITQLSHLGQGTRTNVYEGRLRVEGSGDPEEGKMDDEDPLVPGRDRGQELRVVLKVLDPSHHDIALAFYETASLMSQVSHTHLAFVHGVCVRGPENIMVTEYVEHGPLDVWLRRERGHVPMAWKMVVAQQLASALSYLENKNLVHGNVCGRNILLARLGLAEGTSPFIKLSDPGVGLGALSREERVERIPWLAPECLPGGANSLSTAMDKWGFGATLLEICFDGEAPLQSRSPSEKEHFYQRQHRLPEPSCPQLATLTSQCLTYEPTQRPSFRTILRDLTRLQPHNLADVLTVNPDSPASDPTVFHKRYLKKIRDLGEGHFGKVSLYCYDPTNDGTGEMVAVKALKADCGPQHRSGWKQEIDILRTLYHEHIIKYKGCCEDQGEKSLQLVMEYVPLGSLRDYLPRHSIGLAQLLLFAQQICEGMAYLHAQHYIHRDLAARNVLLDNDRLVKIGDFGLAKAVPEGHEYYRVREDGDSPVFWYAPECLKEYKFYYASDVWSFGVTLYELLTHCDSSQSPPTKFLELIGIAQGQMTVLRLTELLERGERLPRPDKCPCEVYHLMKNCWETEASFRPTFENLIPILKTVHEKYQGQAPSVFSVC
T3 sequence (P23458 whole entry): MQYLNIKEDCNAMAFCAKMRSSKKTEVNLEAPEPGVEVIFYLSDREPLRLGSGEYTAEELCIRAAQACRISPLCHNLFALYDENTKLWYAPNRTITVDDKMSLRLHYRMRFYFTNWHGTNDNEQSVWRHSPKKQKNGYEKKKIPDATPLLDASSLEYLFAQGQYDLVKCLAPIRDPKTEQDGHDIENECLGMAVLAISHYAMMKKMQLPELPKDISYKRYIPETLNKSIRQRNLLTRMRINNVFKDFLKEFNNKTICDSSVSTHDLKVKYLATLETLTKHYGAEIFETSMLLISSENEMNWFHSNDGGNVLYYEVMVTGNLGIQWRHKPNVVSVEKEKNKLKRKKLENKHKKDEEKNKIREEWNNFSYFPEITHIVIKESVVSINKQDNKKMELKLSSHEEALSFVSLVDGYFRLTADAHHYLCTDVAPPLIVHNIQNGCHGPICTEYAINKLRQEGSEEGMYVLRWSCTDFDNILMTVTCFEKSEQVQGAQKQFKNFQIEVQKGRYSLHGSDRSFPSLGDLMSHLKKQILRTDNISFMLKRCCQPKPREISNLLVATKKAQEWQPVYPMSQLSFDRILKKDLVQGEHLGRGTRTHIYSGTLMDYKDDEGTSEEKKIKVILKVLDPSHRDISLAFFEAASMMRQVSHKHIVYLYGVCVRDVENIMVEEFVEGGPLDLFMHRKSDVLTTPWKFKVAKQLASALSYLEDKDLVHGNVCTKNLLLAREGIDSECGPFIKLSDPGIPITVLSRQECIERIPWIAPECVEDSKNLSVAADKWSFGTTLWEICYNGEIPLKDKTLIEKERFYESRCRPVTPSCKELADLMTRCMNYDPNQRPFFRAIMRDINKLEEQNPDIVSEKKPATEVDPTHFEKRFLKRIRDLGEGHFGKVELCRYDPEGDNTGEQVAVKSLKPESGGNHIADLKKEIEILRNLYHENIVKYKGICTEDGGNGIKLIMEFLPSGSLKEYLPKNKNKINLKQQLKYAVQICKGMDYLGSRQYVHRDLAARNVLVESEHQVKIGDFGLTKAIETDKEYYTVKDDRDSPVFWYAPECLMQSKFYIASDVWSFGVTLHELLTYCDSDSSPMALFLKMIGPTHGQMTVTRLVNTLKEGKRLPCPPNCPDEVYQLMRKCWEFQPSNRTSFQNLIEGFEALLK
T1 sequence (O60674 whole entry): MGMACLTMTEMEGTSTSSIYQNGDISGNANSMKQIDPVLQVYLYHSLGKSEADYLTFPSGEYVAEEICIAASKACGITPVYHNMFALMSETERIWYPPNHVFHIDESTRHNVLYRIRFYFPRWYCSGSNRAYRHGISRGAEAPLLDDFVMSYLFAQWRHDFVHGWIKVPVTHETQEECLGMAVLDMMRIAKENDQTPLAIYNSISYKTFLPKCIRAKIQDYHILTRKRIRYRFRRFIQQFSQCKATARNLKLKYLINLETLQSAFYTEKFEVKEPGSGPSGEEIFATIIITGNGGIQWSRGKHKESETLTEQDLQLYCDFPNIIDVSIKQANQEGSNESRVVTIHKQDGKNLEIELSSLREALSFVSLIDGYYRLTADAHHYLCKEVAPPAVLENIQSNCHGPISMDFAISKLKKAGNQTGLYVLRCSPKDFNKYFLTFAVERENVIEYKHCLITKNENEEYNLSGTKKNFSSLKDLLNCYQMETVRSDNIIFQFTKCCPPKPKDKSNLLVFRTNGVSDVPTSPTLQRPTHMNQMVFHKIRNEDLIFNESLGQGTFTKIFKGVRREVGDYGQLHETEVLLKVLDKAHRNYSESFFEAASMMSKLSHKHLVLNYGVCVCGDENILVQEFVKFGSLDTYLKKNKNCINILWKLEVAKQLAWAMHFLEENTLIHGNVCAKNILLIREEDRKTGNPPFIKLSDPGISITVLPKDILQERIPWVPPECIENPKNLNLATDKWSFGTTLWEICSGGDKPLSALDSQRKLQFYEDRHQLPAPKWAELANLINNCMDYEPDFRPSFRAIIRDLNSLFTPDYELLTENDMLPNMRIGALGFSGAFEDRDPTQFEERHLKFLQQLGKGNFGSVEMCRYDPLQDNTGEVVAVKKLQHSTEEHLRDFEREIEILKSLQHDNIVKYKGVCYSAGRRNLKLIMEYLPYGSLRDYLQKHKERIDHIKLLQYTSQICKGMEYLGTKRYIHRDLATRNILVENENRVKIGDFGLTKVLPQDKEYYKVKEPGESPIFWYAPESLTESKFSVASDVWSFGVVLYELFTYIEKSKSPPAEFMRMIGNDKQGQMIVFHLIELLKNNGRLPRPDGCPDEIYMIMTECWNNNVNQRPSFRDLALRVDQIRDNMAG

Compound	Ki (JAK2) [nM]	Ki (JAK3) [nM]	JAK3 (pKi)-JAK1 (pKi) (JAK3; [2])	Ki (JAK1) [nM]	Ki (Tyk2) [nM]	IC50 [1] [nM]	JAK 2 (pKi) (JAK2)	JAK 3 (pKi) (JAK3)	JAK 1 (pKi) (JAK1)	Tyk 2 (pKi) (Tyk2)	Tall-1 (pIC50) [1, 3]	JAK3 (pKi)-JAK1 (pKi) (JAK3; [4])	Tall-1 (pIC50) [1, 5]
C=CC(=O)N1CC(C)(COc2nc(-c3ccc(O)cc3)cc3[nH]ncc23)C1 [Compound 3-56]	10 to 100	< 0.1	A (a value of 3 or above)	> 100	> 100	< 31.6	–	–	–	–	–	–	–
C=CC(=O)N1CC(Oc2cc(-c3ccc(O)c(Cl)c3)cc3[nH]ncc23)C1 [Compound 5-4]	–	–	A (a value of 3 or above)	–	–	–	E (a pKi value of 7 or below (Ki of 100 nM or above))	B (a pKi value between 9 and 10 (Ki between 1 nM and 0.1 nM))	E (a pKi value of 7 or below (Ki of 100 nM or above))	E (a pKi value of 7 or below (Ki of 100 nM or above))	A (a pIC50 value≥7.5 (IC50≤32 nM))	–	–
C=CC(=O)N1CCO[C@@H](C(=O)Nc2nc(-c3ccc(O)c(Cl)c3)cc3[nH]ncc23)C1 [Compound 13-20]	–	–	–	–	–	–	E (a pKi value of 7 or below (Ki of 100 nM or above))	B (a pKi value between 9 and 10 (Ki between 1 nM and 0.1 nM))	E (a pKi value of 7 or below (Ki of 100 nM or above))	E (a pKi value of 7 or below (Ki of 100 nM or above))	–	B (a value of 2.3 to 3)	B (a pIC50 value between 6.7 (included) and 7.5 (IC50 between 200 nM and 32 nM))
C=CC(=O)N1CC[C@H](Oc2cc(-c3ccc(O)c(Cl)c3)cc3[nH]nc(C)c23)C1 [Compound 24, (S)-1-(3-((6-(3-chloro-4-hydroxyphenyl)-3-methyl-1H-indazol-4-yl)oxy)pyrrolidin-1-yl)prop-2-en-1-one]	> 100	0.1 to 1	A (a value of 3 or above)	> 100	> 100	< 31.6	–	–	–	–	–	–	–
C=CC(=O)N1CCC(COc2cc(-c3ccc(O)c(Cl)c3)cc3[nH]ncc23)CC1 [Compound 14-1]	–	–	–	–	–	–	E (a pKi value of 7 or below (Ki of 100 nM or above))	B (a pKi value between 9 and 10 (Ki between 1 nM and 0.1 nM))	E (a pKi value of 7 or below (Ki of 100 nM or above))	E (a pKi value of 7 or below (Ki of 100 nM or above))	–	A (a value of 3 or above)	A (a pIC50 value≥7.5 (IC50≤32 nM))
C=CC(=O)N1CC(CC)(COc2nc(-c3ccc(O)cc3)cc3[nH]ncc23)C1 [Compound 3-62]	–	–	A (a value of 3 or above)	–	–	–	D (a pKi value between 7 and 8 (Ki between 100 nM and 10 nM))	B (a pKi value between 9 and 10 (Ki between 1 nM and 0.1 nM))	E (a pKi value of 7 or below (Ki of 100 nM or above))	E (a pKi value of 7 or below (Ki of 100 nM or above))	A (a pIC50 value≥7.5 (IC50≤32 nM))	–	–
Cc1cc(O)c(F)cc1-c1cc(O[C@H]2CCN(C(=O)/C=C/CN(C)C)C2)c2cn[nH]c2c1 [Compound 1-29]	10 to 100	0.1 to 1	B (a value of 2.3 to 3)	10 to 100	> 100	31.6 to 200	–	–	–	–	–	–	–

Source: US10392368B2, “Pyrazolo and triazolo bicyclic compounds as JAK kinase inhibitors” (THERAVANCE BIOPHARMA R&D IP, LLC, priority 2017, dated 2019)
